± gives the standard deviation of the averaged measurements.

The subject of assay [1] is 409B2 hiPSC (iCRISPR Cas9, FRMD7 editing). Description: NHEJ-attributed indel frequency relative to solvent control (fold (ratio to mock)); higher = more NHEJ outcomes. The method, then:
(§1)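 Subset screen of 55 drugs tested at 5 concentrations around the effective screening dose, in 409B2 iCRISPR Cas9 hiPSCs editing FRMD7 with a ssDNA donor. Drugs were applied for 24 h. Viability was read by resazurin and editing outcomes by amplicon sequencing (HDR, NHEJ <2 bp microhomology, MMEJ ≥2 bp microhomology). Values are relative to solvent mock controls; two biological replicates.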

For assay [2] the test system is unchanged. Description: cell survival relative to solvent control (fold (ratio to mock)); higher = more surviving cells. The method, then:
as §1

For assay [3] the test system is unchanged. The assay can be described thus: MMEJ-attributed deletion frequency relative to solvent control (fold (ratio to mock)); higher = more MMEJ outcomes. The method, then:
as §1

Assay [4] shares this test system. Description: HDR (precise edit) frequency relative to solvent control (fold (ratio to mock)); higher = more homology-directed repair outcomes. How it is done:
as §1

Take `C[C@@H]1O[C@@H](O[C@@H]2[C@@H](O)[C@H](OCCc3ccc(O)c(O)c3)O[C@H](CO)[C@H]2OC(=O)/C=C/c2ccc(O)c(O)c2)[C@H](O)[C@H](O)[C@H]1O` [Verbascoside] (in DMSO): the NHEJ-attributed indel frequency was determined as 0.964 ± 0.014 in assay [1] (20 nM); 1.01 ± 0.033 in assay [1] (50 nM); 0.994 ± 0.03 in assay [1] (100 nM); 1 ± 0.019 in assay [1] (200 nM); 0.975 ± 0.016 in assay [1] (500 nM). For the same compound, the cell survival in assay [2] (20 nM) is 0.884; in assay [2] (50 nM), 1.1; in assay [2] (100 nM), 0.99; in assay [2] (200 nM), 1.11; in assay [2] (500 nM) it was 1.04. Further, the MMEJ-attributed deletion frequency is 1.01 ± 0.02 in assay [3] (20 nM); 0.993 ± 0.082 in assay [3] (50 nM); 1.06 ± 0.06 in assay [3] (100 nM); 0.976 ± 0.13 in assay [3] (200 nM); 1.02 ± 0.087 in assay [3] (500 nM). Moreover, the HDR in assay [4] (20 nM) turned out to be 1.1 ± 0.064; in assay [4] (50 nM), 1.13 ± 0.017; in assay [4] (100 nM), 1.024 ± 0.0069; in assay [4] (200 nM), 1.04 ± 0.044; in assay [4] (500 nM), 1.11 ± 0.012.
For `CCN1CCC[C@H]1CNC(=O)c1cc(S(N)(=O)=O)ccc1OC` [Levosulpiride] (in DMSO), the NHEJ-attributed indel frequency in assay [1] (2000 nM) is 0.98 ± 0.013; in assay [1] (5000 nM) it was 0.9952 ± 0.0031; in assay [1] (10000 nM), 0.9818 ± 0.0064; in assay [1] (20000 nM), 1 ± 0.012; in assay [1] (50000 nM) it was 0.978 ± 0.038. The cell survival stood at 1.06 in assay [2] (2000 nM); 1.32 in assay [2] (5000 nM); 1.26 in assay [2] (10000 nM); 1.18 in assay [2] (20000 nM); 1.33 in assay [2] (50000 nM). Further, the MMEJ-attributed deletion frequency in assay [3] (2000 nM) was 1.07 ± 0.1; in assay [3] (5000 nM) it was 1.06 ± 0.0093; in assay [3] (10000 nM) it was 0.994 ± 0.19; in assay [3] (20000 nM), 1 ± 0.04; in assay [3] (50000 nM), 1 ± 0.04. The HDR in assay [4] (2000 nM) came out at 1.05 ± 0.047; in assay [4] (5000 nM) it was 1.07 ± 0.081; in assay [4] (10000 nM), 1.13 ± 0.019; in assay [4] (20000 nM), 1.06 ± 0.13; in assay [4] (50000 nM), 1.09 ± 0.081.
`CNCc1ccc(-c2[nH]c3cc(F)cc4c3c2CCNC4=O)cc1` [Rucaparib (free base)] (in DMSO): the NHEJ-attributed indel frequency in assay [1] (20 nM) stood at 0.952 ± 0.015; in assay [1] (50 nM), 0.924 ± 0.013; in assay [1] (100 nM), 0.876 ± 0.034; in assay [1] (200 nM), 0.853 ± 0.045; in assay [1] (500 nM) it was 0.787 ± 0.054. In addition, the cell survival turned out to be 0.789 in assay [2] (20 nM); 0.744 in assay [2] (50 nM); 0.541 in assay [2] (100 nM); 0.487 in assay [2] (200 nM); 0.291 in assay [2] (500 nM). For the same compound, the MMEJ-attributed deletion frequency in assay [3] (20 nM) worked out at 1.04 ± 0.017; in assay [3] (50 nM), 0.892 ± 0.2; in assay [3] (100 nM), 0.93 ± 0.079; in assay [3] (200 nM), 0.869 ± 0.16; in assay [3] (500 nM), 0.918 ± 0.076. Further, the HDR in assay [4] (20 nM) is 1.13 ± 0.035; in assay [4] (50 nM) it was 1.302 ± 0.0046; in assay [4] (100 nM) it was 1.31 ± 0.071; in assay [4] (200 nM), 1.32 ± 0.17; in assay [4] (500 nM), 1.26 ± 0.037.
For the compound `CC[C@@]1(O)C(=O)OCc2c1cc1n(c2=O)Cc2cc3cc(O)ccc3nc2-1` [10-Hydroxycamptothecin] (in DMSO), the NHEJ-attributed indel frequency in assay [1] (20 nM) came to 0.393 ± 0.053; in assay [1] (50 nM), 0.378 ± 0.0062; in assay [1] (100 nM), 0.333 ± 0.045; in assay [1] (200 nM), 0.267 ± 0.025; in assay [1] (500 nM), 0.208 ± 0.021. The cell survival in assay [2] (20 nM) is 0.0133; in assay [2] (50 nM) it was -0.00908; in assay [2] (100 nM), -0.00864; in assay [2] (200 nM), -0.0102; in assay [2] (500 nM) it was -0.000182. In addition, the MMEJ-attributed deletion frequency in assay [3] (20 nM) is 0.686 ± 0.039; in assay [3] (50 nM), 0.286 ± 0.059; in assay [3] (100 nM), 0.389 ± 0.0056; in assay [3] (200 nM) it was 0.546 ± 0.05; in assay [3] (500 nM) it was 0.474 ± 0.22. The HDR is 0.141 ± 0.075 in assay [4] (20 nM); 0.115 ± 0.032 in assay [4] (50 nM); 0.106 ± 0.03 in assay [4] (100 nM); 0.0697 ± 0.015 in assay [4] (200 nM); 0.109 ± 0.033 in assay [4] (500 nM).

Source of the values: the supplement of paper PMC12698765.
